Reference: article PMC12502564, “Evaluation of LLM-generated peptide as foundation template for discovery of effective encrypted AMPs against clinical superbugs” (Microbiology Spectrum, 2025)
No end group written: not given here.

How the values were obtained:
sheep red blood cells = assay: Hemolysis test; format: cell-based; settings: 4% sheep red blood cell suspension in PBS, 37°C, 1 h, OD 450 nm, log2-transformed
Method: Freshly collected sheep red blood cells, provided by Solarbio (Beijing, China), were washed three times with PBS to prepare a red blood cell suspension (2,000 rpm). Subsequently, the resulting red blood cells were suspended in 1 × PBS buffer and adjusted to a 4% red blood cell suspension. In a 96-well plate, perform twofold serial dilutions of the test peptides in 1 × PBS to final concentrations of 512, 256, 128, 64, 32, 16, 8, 4, 2, 1, 0.5, and 0.25 µg mL^−1 in each well. Use Triton X-100 as a positive control and 1 × PBS buffer as a negative control. Take 100 µL of red blood cell solution and 100 µL of peptide solutions with different concentration gradients and control solutions, add them to a new 96-well plate, and incubate at 37°C for 1 h. Subsequently, the 96-well plate was centrifuged at 4,000 rpm for 10 min, and the supernatant was collected into a 96-well plate for later use. Then the absorbance was measured at a wavelength of 450 nm using a microplate reader. All experiments were repeated in three parallel groups and averaged. The hemolysis rate was calculated by the following formula and the IC50 value of each AMPs was calculated by online tools: https://www.aatbio.com/tools/ic50-calculator.
(1) Hemolysis rate (%)=OD(AMP)− OD(PBS)/OD(TritonX−100)− OD(PBS)×100%

CRKP 2403276 = format: cell-based, carbapenem-resistant K. pneumoniae
Method: (§1) The MIC of all peptides was determined using the microdilution broth method in a 96-well plate. Peptides were dissolved in the DMSO with an initial concentration of 12,800 µg mL^−1. And cells of eight strains were separately suspended in the MHB at a density of approximately 10^5 CFU mL^−1. In the first column of the 96-well plate, 16 µL of peptide and 184 µL of MHB were added to each well to achieve a final concentration of 1,024 µg mL^−1. One-hundred microliters of MHB was added to each of the remaining wells. Then the first column of liquid was mixed well and diluted to the 12th column using the twofold dilution method. One-hundred microliters of prepared bacterial solution was added to all wells, and the 96-well plate was incubated at 37°C for 18–24 h. The MIC was defined as the concentration of the peptide in the well just preceding the first well showing visible turbidity. All experiments were performed in triplicate to ensure reliability.

A. baumannii ATCC19606 = format: cell-based, Acinetobacter baumannii
Method: as §1

CRAB [1] = assay: Drug resistance assay, 20 passages; format: cell-based, carbapenem-resistant Acinetobacter baumannii; settings: 20 passages at 0.5-fold MIC, n = 3
Method: Resistance development assays were performed following previous report ([43]). CRAB was cultured overnight at 37°C at 160 rpm in LB. In wells of a 96-well polypropylene flat-bottom plate, 5 µL of the overnight bacterial culture (10^7 CFU mL^−1) was added to 100 µL of peptides/antibiotic solutions (with final concentrations of 0.25 to 512 µg mL^−1) in MHB. Plates were incubated for 18 to 20 h at 37°C. The MIC, the lowest concentration of peptides/antibiotic that caused lack of visible bacterial growth, was determined for each bacterial species. Thereafter, 5 µL of the growth at the 0.5-fold MIC suspension (10^7 CFU mL^−1) was added to a fresh medium containing peptides/antibiotic, and these mixtures were incubated as described above. This was repeated for 20 passages. All experiments were performed in triplicate to ensure reliability.

E. coli ATCC25922 = format: cell-based, Escherichia coli
Method: as §1

HEK293 cells = format: cell-based
Method: Cytotoxicity of AMPs was determined using the Cell Counting Kit-8. HEK293 cells, bought from Procell (Wuhan, China), were inoculated in 96-well flat-bottom plates according to 5,000 cells/well in cell culture medium. After 24-h incubation at 37°C with 5% CO2 in atmosphere, medium was replaced with fresh medium and incubated with antimicrobial peptide solutions at various concentrations for 48 h. Cell viability was monitored by adding CCK-8 solution and measuring OD450 after 4 h. Zero-well and control-well were set during this experimental process. All experiments were performed with three independent replicates. The cell survival rate was calculated by the following formula, and the CC50 value of each AMPs was calculated by online tools: https://www.aatbio.com/tools/ic50-calculator. (2) Cell survival rate (%)=OD(AMP)− OD(zero)/OD(control)− OD(zero)×100%

MRSA 2210187 [2] = format: cell-based, methicillin-resistant Staphylococcus aureus; settings: 2210187
Method: as §1

CRAB [3] = assay: Outer membrane permeability assay (NPN); format: cell-based, carbapenem-resistant Acinetobacter baumannii; settings: 10^8 CFU mL^−1
Method: NPN binds phospholipids in the periplasmic space, so NPN assay was carried out to analyze the effect of AMPs on the outer membrane permeabilization of bacteria ([65]). After CRAB was grown to the exponential phase, bacteria cells were harvested and washed three times in washing buffer of 5 mM glucose and 5 mM HEPES (1:1, pH = 7.2) and then re-adjusted to 10^8 CFU mL^−1 in same buffer. Bacterial suspensions (150 µL/well) were loaded into black-walled, clear-bottom 96-well plates with lids. Following bacterial loading, 50 µL of 10 µM NPN was introduced into each well, with 30-min pre-incubation for CRAB. Post-incubation fluorescence signals were acquired using 350 nm excitation and 420 nm emission wavelengths. Compounds (10 µL) were then administered to achieve 1 × MIC/10 × MIC -equivalent final concentrations in the dye-loaded bacterial suspensions. Real-time fluorescence monitoring was performed with continuous acquisition during the first 10 min, followed by measurements at 10-min intervals. Negative controls received 10 µL sterile water in lieu of antimicrobial peptides while maintaining equivalent pre-incubation conditions. All experimental conditions were executed with three biological replicates.

MRSA 2210187 [4] = settings: 10% fetal bovine serum, room temperature, 1–6 h, then MIC assay, triplicate
Method: For serum sensitivity experiments, the peptide to be tested was incubated in 10% fetal bovine serum at room temperature for 1–6 h. After deactivation, the MICs of peptides against CRAB 2210186 and MRSA 2210187 were measured using the MIC assay. All experiments were performed in triplicate to ensure reliability.

CRAB 2210186 = format: cell-based, carbapenem-resistant Acinetobacter baumannii
Method: as §1

S. aureus ATCC25923 = format: cell-based, Staphylococcus aureus
Method: as §1

WLKRILKWIGNKLKW [PL-15]
log2IC50 (50% hemolytic concentration) (sheep red blood cells): ≥ 3 | MIC (CRKP 2403276): lower than 11 µg mL^−1 | MIC (A. baumannii ATCC19606): lower than 11 µg mL^−1 | MIC change after serial passaging (CRAB [1]): within a twofold range | MIC (E. coli ATCC25922): lower than 11 µg mL^−1 | log2CC50 (50% cell viability) (HEK293 cells): ≥ 3 | MIC (MRSA 2210187 [2]): 2 mg/L | NPN fluorescence (outer membrane permeability) (CRAB [3]; 1 × MIC): marginal increase in fluorescence intensity | NPN fluorescence (outer membrane permeability) (CRAB [3]; 10 × MIC): rapid and significant increase in fluorescence intensity | fold change in MIC after incubation in serum (MRSA 2210187 [4]): maximum twofold increase | MIC (CRAB 2210186): 4 mg/L | MIC (S. aureus ATCC25923): lower than 11 µg mL^−1
